# Entries after “also recorded” stand apart in the source; their conditions may differ. Like-named read-outs stand apart in the source and are kept apart here.
# Assays:
# [1] = tested on: sweet corn, yellow corn, and sorghum; settings: PRE; crop and rate in the words
# Description: Treatments were also applied ot sweet corn, yellow corn, and sorghum.
# Treatments were applied before the emergence of Jimsonweed, velvetleaf, hairy beggarticks, common cocklebur, barnyardgrass, sweet corn, yellow corn, and sorghum. Plant species were planted in fiber flats (6″×10″) containing Pennington soil and flats were watered well before application and watered lightly after application. Flats were watered and fertilized routinely after treatment application.
# common chickweed (CC) = assay: Ex2 PRE greenhouse, % control; assay type: in vivo, Stellaria media; settings: 28 DAT, g ai/ha by row: r12-40 2,4-DC 31.25/62.5/125/250/375 (3 rows each) + metazachlor 250/500/750 (cycling), r42-46 2,4-DC 31.25/62.5/125/250/375, r47-49 metazachlor 250/500/750
# Description: Test compositions containing 2,4 DC Example 1B and metazachlor (Butisan® S, 43.1% active ingredient, BASF) and mixtures of 2-(2,4-dichlorophenyl)methyl-4,4-dimethyl-3-isoxazolidinone and metazachlor, were diluted with water to provide the appropriate test rate concentrations.
# The test crops were wheat and canola (Brassica napus), the test weeds were Italian ryegrass (IR) (Lolium perenne. multiflorum), annual bluegrass (AB) (Poa annua), common lambsquarters (CL) (Chenopodium album), littleseed canarygrass (LC) (Phalaris minor), common chickweed (CC) (Stellaria media), and corn poppy (CP) (Papaver rhoeas).
# For pre-emergence testing, four disposable fiber flats (6″ by 10″) for each rate of application of each herbicide solution were filled with top soil, to which seeds of each species were planted in furrows made by a template pressed on the top of the soil. The furrows were covered with soil after planting the seed and were watered well before application of the test compounds. […]
# The control of weeds was evaluated in each experimental test at 21 days after treatment (DAT) for corn poppy and wheat and 28 DAT for all other species. […]
# Percent control was determined by a method similar to the 0 to 100 rating system disclosed in “Research Methods in Weed Science,” 2nd ed., B. Truelove, Ed.; Southern Weed Science Society; Auburn University, Auburn, Ala., 1977.
# Wild buckwheat = assay: Ex12 PRE 2,4-DC + dimethenamid-P, % control 28 DAT, Colby; assay type: in vivo, Polygonum convolvulus
# Description: (§1) The tested weeds include: wild buckwheat (Polygonum convolvulus, POLCO), velvetleaf (Abutilon theophrasti, ABUTH), cheat (Bromus secalinus, BROSE), wild oat (Avena fatua, AVEFA), radish (Raphanus sativus, RAPSN), corn poppy (Papaver rhoeas, PAPRH), yellow foxtail (Setaria pumila, SETLU), Italian ryegrass (Lolium perenne ssp. multiflorum, LOLMU). The tested crop was Oilseed rape.
# (§2) This greenhouse study was conducted to assess the preemergence (PRE) weed control and oilseed rape tolerance with 2,4 DC (CS 36.7%) and dimethenamid-P (Outlook®, 63.9%) tank-mix combinations.
# (§3) Metazachlor (Butisan, 43.1%) plus dimethenamid-P applied as tank mix at 500 g each was applied as commercial standard. Treatments were replicated 3 times and flats were watered after planting but before the treatment and then lightly watered after treatment application. Thereafter flats were watered and fertilized routinely.
# Common cocklebur = assay: Ex37 PRE 2,4-DC + atrazine, % control 28 DAT, Colby; assay type: in vivo, Xanthium strumarium
# Excerpt: (§4) S-metolachlor (DUAL II MAGNUM®, 82.4%) at 525 g ai/h plus atrazine at 560 g ai/h was included as a standard for comparison. […] Thereafter flats were watered and fertilized routinely.
# Wild oat = assay: Ex12 PRE 2,4-DC + dimethenamid-P, % control 28 DAT, Colby; assay type: in vivo, Avena fatua
# Description: as §1, §2, §3
# [2] = tested on: weeds; corn, sweet corn, and sorghum; assay: Ex37 PRE greenhouse; assay type: in vivo; settings: weed and rate in the words
# Excerpt: as §4
# weeds; barley and wheat = assay: Ex40 POST greenhouse; assay type: in vivo; settings: rate in the words
# Description: Treatments were applied to barley and wheat crops.
# Non-ionic surfactant (NIS) was added to all treatments at 0.5% v/v. All plant species were direct seeded into 3″ plastic pots using metro-mix as growth media. At treatment common lambsquarters was 1.75″, common chickweed was 2″, wild mustard was 2.25″, wild oat was 5.5″, wild buckwheat was 2-5″, Italian ryegrass was 2-3″, wheat was 5.5″ and barley was 4.5″ in height. Plants were watered well before application and not watered 24 h after application. Plants were watered and fertilized routinely after treatment application. Each treatment was replicated four times. Treated flats were placed in randomized block design in the greenhouse.
# Common ragweed = assay: Ex16 PRE 2,4-DC + pyroxasulfone, % control 28 DAT, Colby; assay type: in vivo, Ambrosia artemisiifolia
# Excerpt: To determine PRE efficacy, five levels of 2,4 DC (36.7% CS) 0, 125, 170, 210, or 250 g ai/ha and five levels of pyroxasulfone (KIH485-85WG) 0, 50, 65, 80, or 95 g ai/ha were applied either alone or as tank-mix. Additional treatments consisted of premix of pyroxasulfone plus fluthiacet-methyl (Anthem™ 23.3%) at 169.9 g ai/ha, S-metolachlor (Dual II Magnum, 82.4%) at 1388 g, and tank-mix of mesotrione (Callisto, 40%) at 123 g plus S-metolachlor at 1252 g. […] Treatments were applied before the emergence of black nightshade, giant foxtail, green foxtail, yellow foxtail, large crabgrass, kochia, redroot pigweed, common ragweed, and barnyardgrass.
# Flats were watered and fertilized routinely after treatment application. Each treatment was replicated three times.
# Barley = assay type: in vivo; settings: 14 DAT
# Description: (§5) Treatments were applied to wheat and barley crops.
# (§6) Nonionic surfactant was added at 0.5% v/v in all treatments. Treatments were applied to wheat (5.5″), barley (5″), wild oat (5.5″), common chickweed (2″), wild buckwheat (3″), and common lambsquarters (2″). All plant species were direct seeded into 3″ plastic pots using metro-mix as growth media and pots were watered well before application and watered 24 h after application. Plants were watered and fertilized routinely after treatment application. Each treatment was replicated four times.
# wheat = assay type: in vivo; settings: 14 DAT, POST, 2,4-DC 210 g ai/ha
# Description: as §5, §6
smiles,measurement,setting,value
"CC1(C)CON(Cc2ccc(Cl)cc2Cl)C1=O [2,4-DC, 2-(2,4-dichlorophenyl)methyl-4,4-dimethyl-3-isoxazolidinone]",crop safety in words,[1],alone was safe on sweet corn and sorghum at the lowest rate while safe on yellow corn at 50 or 100 g ai/ha
same,% Control CC,common chickweed (CC),100%
same,X,"Wild buckwheat; 2,4-DC alone 125 g ai/ha",8%
same,X,"Wild buckwheat; 2,4-DC alone 170 g ai/ha",25%
same,X,"Wild buckwheat; 2,4-DC alone 210 g ai/ha",28%
same,X,"Wild buckwheat; 2,4-DC alone 250 g ai/ha",38%
same,X,"Common cocklebur; 2,4-DC alone 50 g ai/ha",0%
same,X,"Common cocklebur; 2,4-DC alone 100 g ai/ha",7%
same,X,"Common cocklebur; 2,4-DC alone 200 g ai/ha",60%
same,X,"Wild oat; 2,4-DC alone 125 g ai/ha",9%
same,X,"Wild oat; 2,4-DC alone 170 g ai/ha",27%
same,X,"Wild oat; 2,4-DC alone 210 g ai/ha",27%
same,X,"Wild oat; 2,4-DC alone 250 g ai/ha",29%
same,weed control in words,[2],applied alone at ≥50 g ai/ha controlled barnyardgrass 28 DAT; also recorded: applied alone at ≥200 g controlled velvetleaf and redroot pigweed
same,weed control / crop safety in words,weeds; barley and wheat,applied alone was safe at all rates on both wheat and barley
same,X,"Common ragweed; 2,4-DC alone 125 g ai/ha",33%
same,X,"Common ragweed; 2,4-DC alone 170 g ai/ha",40%
same,X,"Common ragweed; 2,4-DC alone 210 g ai/ha",40%
same,X,"Common ragweed; 2,4-DC alone 250 g ai/ha",45%
same,"% crop injury for 2,4-DC alone","Barley; POST, 2,4-DC 125 g ai/ha",17%
same,"% crop injury for 2,4-DC alone","Barley; POST, 2,4-DC 170 g ai/ha",17%
same,"% crop injury for 2,4-DC alone","Barley; POST, 2,4-DC 210 g ai/ha",18%
same,"% crop injury for 2,4-DC alone","Barley; POST, 2,4-DC 250 g ai/ha",23%
same,"% crop injury for 2,4-DC alone",wheat,31%

# From US12616203B2, “Use of 3-isoxazolidinones compounds as selective herbicides” (FMC Corporation, priority 2014, dated 2026)
